Experimental data from patent US20140073643A1, “TREATMENT OF JAK2-MEDIATED CONDITIONS” (YM BIOSCIENCES AUSTRALIA PTY LTD, priority 2010, published 2014).
Marks after values point to notes of the source that are not given here.

Tests used:
[1] = administered once a day; cited from earlier work
[2] = tested on: patients with high- or intermediate-risk primary myelofibrosis (PMF) and post-PV or post-essential thrombocythemia (ET) myelofibrosis; test: Phase I/II clinical trial of CYT387: toxicity; assay type: in vivo
Procedure: (§1) A clinical trial was designed to assess the safety, tolerability, and pharmacokinetic behavior of CYT387 in a Phase I dose-escalation study in patients with high- or intermediate-risk primary myelofibrosis (PMF) and post-PV or post-essential thrombocythemia (ET) myelofibrosis. The secondary objective was evaluation of CYT387 's benefit to myelofibrosis patients. CYT387 was administered orally (in a capsule without excipients) once daily in 28-day cycles. For patients achieving less than a complete remission after 3 cycles of treatment, escalation was permitted to the highest tolerated dose in the absence of disease progression or unacceptable toxicity. Once dose-limiting toxicity (DLT) was identified, a dose-confirmation cohort initiated treatment at the maximum tolerated dose (MTD) and/or a lower clinically effective dose.
(§2) Results were obtained for 36 subjects enrolled in the 120 patient Phase I/II trial for which recruitment is ongoing. Of these, 18 patients were from the dose escalation phase, and 18 patients were from the subsequent dose confirmation phase. Twenty subjects (56%) were red cell transfusion-dependent at study entry. Prior treatment included other JAK inhibitors in ten patients (nine and one subjects with INCB018424 and TG101348, respectively) and pomalidomide in nine patients. The median treatment duration at publication was 15 weeks (range 4-38).
To date, 36 subjects were evaluable for toxicity. At the highest dose level (400 mg/day), two of six subjects experienced dose limiting toxicity (DLT) (one each with asymptomatic grade three hyperlipasemia and grade three headache that were reversible upon holding drug); consequently, the maximum tolerated dose (MTD) was declared at 300 mg/day. In the dose-confirmation phase, subjects were started at one of two dose levels that were deemed clinically effective: 150 mg/day (n=15) and 300 mg/day (n=3). Thirty-five subjects were on active therapy at publication of the abstract: 100 mg/day (n=2), 150 mg/day (n=20), 300 mg/day (n=10), and 400 mg/day (n=3).

[3] = tested on: patients with high- or intermediate-risk primary myelofibrosis (PMF) and post-PV or post-essential thrombocythemia (ET) myelofibrosis; test: Phase I/II clinical trial of CYT387: spleen response; assay type: in vivo, human
Text: By “spleen response” is meant a reduction in the size of the patient's spleen as assessed by either palpation of a previously palpable spleen during physical exam or by diagnostic imaging. The IWG consensus criteria specifies that there be either a minimum 50% reduction in palpable splenomegaly (spleen enlargement) of a spleen that is at least 10 cm at baseline (prior to treatment) or of a spleen that is palpable at more than 5 cm at baseline becomes not palpable. However, smaller reductions are also considered to be within the term “spleen response”.
as §1, §2
Spleen Size Reduction: Twenty nine (97%) of the 30 evaluable subjects who had splenomegaly at baseline (median 20 cm; range 10-32 cm) had some degree of spleen size reduction (median 9 cm; range 2-18 cm). Eleven (37%) patients have achieved a minimum 50% decrease in palpable spleen size, thus qualifying them for a CI per IWG-MRT criteria, including three out of eight subjects (38%) who were previously treated with INCB018424.

[4] = tested on: patients with high- or intermediate-risk primary myelofibrosis (PMF) and post-PV or post-essential thrombocythemia (ET) myelofibrosis; test: Phase I/II clinical trial of CYT387: constitutional symptoms; assay type: in vivo, human; settings: at last follow up
Procedure: as §1, §2
Constitutional symptoms: The proportion of patients with the following symptoms at baseline was as follows: fatigue (97%), pruritus (22%), night sweats (38%), cough (13%), bone pain (28%), and fever (16%). At last follow up, improvement (complete resolution; CR) in these symptoms was reported by 68% (16% CR), 86% (57% CR), 83% (75% CR), 75% (50% CR), 78% (44% CR), and 100% (100% CR), respectively.

[5] = tested on: patients with high- or intermediate-risk primary myelofibrosis (PMF) and post-PV or post-essential thrombocythemia (ET) myelofibrosis; test: Phase I/II clinical trial of CYT387: anemia response / hemoglobin; assay type: in vivo, human
Text: By “anemia response” is meant an increase in the patient's hemoglobin level or a patient who was transfusion dependent becoming transfusion independent. Desirably, a minimum increase in hemoglobin of 2.0 g/dL lasting a minimum of 8 weeks is achieved, which is the level of improvement specified in the International Working Group (IWG) consensus criteria. However, smaller, but still medically significant, increases in hemoglobin are also considered to be within the term “anemia response”.
as §1, with “CYT387 was administered orally (in a capsule without excipients) once daily in 28-day cycles.” left out
as §2
Anemia Response: The total anemia response rate was 63%. Of 22 subjects who were evaluable for anemia response (baseline Hgb<10 g/dL or red cell transfusion-dependent), nine subjects (41%) had achieved “Clinical Improvement (CI)” as per the International Working Group for Myeloproliferative Neoplasms Research and Treatment (IWG-MRT) criteria, including two of four subjects who were previously treated with INCB018424. An additional five subjects experienced a >50% reduction in transfusion requirement.
There is also a line for “anemia evaluable” patients which are patients who are considered anemic at baseline by IWG criteria. That is they have a baseline hgb of <10 g/dL or are transfusion dependent at baseline.

[6] = 30 evaluable subjects with splenomegaly at baseline
[7] = Previous Treatment with IMids (Pomalidomide, Thalidomide, Revlimid)
[8] = Previous Treatment with INCB018424
[9] = Previous Treatment with TG-101348
[10] = Previous Treatment with Unspecified JAK2
[11] = Previous Treatment with any JAK2
[12] = interim response by diagnosis: PET
[13] = interim response by diagnosis: PMF
[14] = interim response by diagnosis: PPV

Compound: Cc1cnc(Nc2ccc(OCCN3CCCC3)cc2)nc1Nc1cccc(S(=O)(=O)NC(C)(C)C)c1 [TG101348]
- maximum tolerated dose (MTD) [1]: 680 mg/day

Compound: N#CCNC(=O)c1ccc(-c2ccnc(Nc3ccc(N4CCOCC4)cc3)n2)cc1 [CYT387, N-(cyanomethyl)-4-[2-[[4-(4-morpholinyl)phenyl]amino]-4-pyrimidinyl]-benzamide]
- Grade 3/4 thrombocytopenia ([2]; human, in vivo): 22%
- Treatment-emergent grade 3/4 neutropenia ([2]; human, in vivo): not observed
- grade 4 non-hematological toxicities ([2]; human, in vivo): No grade 4 non-hematological toxicities were observed
- subjects experiencing dose limiting toxicity (DLT) ([2]; human, in vivo): two of six
- subjects with first-dose effect (grade 1 lightheadedness and hypotension) ([2]; human, in vivo): 36%
- time to resolution of first-dose effect ([2]; human, in vivo): 3 to 4 h
- tolerability ([2]; human, in vivo): well tolerated
- treatment-emergent grade 3 anemia ([2]; human, in vivo): 3%
- maximum tolerated dose (MTD) ([2]; oral once daily): 300 mg/day
- subjects with some degree of spleen size reduction ([3]; 29 of 30 evaluable subjects with splenomegaly at baseline (median 20 cm)): 97%
- spleen size reduction, median [3, 6]: 9 cm
- spleen size reduction, range [3, 6]: 2-18 cm
- Responders, Spleen [3, 7]: Spleen: 6/11 = 54.5%
- Responders, Spleen [3, 8]: Spleen: 3/10 = 30%
- Responders, Spleen [3, 9]: Spleen: 1/4 = 25%
- Responders, Spleen [3, 10]: Spleen: 1/3 = 33.3%
- Responders, Spleen [3, 11]: Spleen: 5/17 = 29.4%
- patients with minimum 50% decrease in palpable spleen size (CI per IWG-MRT) ([3]; eleven of 30 evaluable): 37%
- Spleen Response/Evaluable [3, 12]: 7/19 (36.8%)
- Spleen Response/Evaluable [3, 13]: 22/82 (26.8%)
- Spleen Response/Evaluable [3, 14]: 11/33 (33.3%)
- patients with minimum 50% decrease in palpable spleen size (CI per IWG-MRT), previously treated with INCB018424 ([3]; three out of eight subjects previously treated with INCB018424): 38%
- complete resolution (CR) of bone pain [4]: 44%
- complete resolution (CR) of cough [4]: 50%
- complete resolution (CR) of fatigue [4]: 16%
- complete resolution (CR) of fever [4]: 100%
- complete resolution (CR) of night sweats [4]: 75%
- complete resolution (CR) of pruritus [4]: 57%
- improvement in bone pain [4]: 78%
- improvement in cough [4]: 75%
- improvement in fever [4]: 100%
- improvement in night sweats [4]: 83%
- improvement in pruritus [4]: 86%
- improvement in fatigue ([4]; patients with symptom at baseline): 68%
- effect on hemoglobin in transfusion dependent patients who respond (Tx responders) ([5]; FIG. 2, no longer receiving RBC transfusions): modest initial increase in hemoglobin that is sustained
- Anemia response: % responders ([5]; Initial Dose 150 BID): 33%*
- Anemia response: Responders (number) ([5]; Initial Dose 150 BID, 21 evaluable pts): 7
- Anemia response: % responders ([5]; Initial Dose 150 QD): 50%
- Anemia response: Responders (number) ([5]; Initial Dose 150 QD, 32 evaluable pts): 16
- Anemia response: % responders ([5]; Initial Dose 300 QD): 54%
- Anemia response: Responders (number) ([5]; Initial Dose 300 QD, 39 evaluable pts): 21
- Responders, Anemia [5, 7]: Anemia: 9/14 = 64.3%
- Responders, Anemia [5, 8]: Anemia: 4/7 = 57.1%
- Responders, Anemia [5, 9]: Anemia: 3/4 = 75%
- Responders, Anemia [5, 10]: Anemia: 2/3 = 66.7%
- Responders, Anemia [5, 11]: Anemia: 9/14 = 64.3%
- effect on hemoglobin levels ([5]; first 60 patients, FIG. 1 and 2): clear and sustained improvement in hemoglobin levels
- Anemia Response/Evaluable [5, 12]: 10/18 (55.6%)
- Anemia Response/Evaluable [5, 13]: 30/66 (45.5%)
- Anemia Response/Evaluable [5, 14]: 6/14 (42.9%)
- subjects achieving Clinical Improvement (CI) in anemia per IWG-MRT criteria ([5]; nine of 22 evaluable subjects (baseline Hgb<10 g/dL or red cell transfusion-dependent)): 41%
- additional subjects with >50% reduction in transfusion requirement ([5]; of 22 evaluable subjects): five
- total anemia response rate ([5]; oral once daily, 28-day cycles, 22 subjects evaluable for anemia response): 63%
- subjects achieving anemia CI per IWG-MRT among those previously treated with INCB018424 ([5]; previously treated with INCB018424): two of four
